The results in this text go back to patent publication US9382197B2, “Substituted hydroxamic acids and uses thereof” (Millennium Pharmaceuticals, Inc., priority 2010, dated 2016).

The structures appear in SMILES notation.

By IC50 is commonly meant the concentration needed to halve the response being measured.

The first test deals with T1, purified human HDAC6 (Homo sapiens, UniProt Q9UBN7).
T1 construct: purchased BPS Bioscience 5006
T1 sequence (Q9UBN7 1-1215): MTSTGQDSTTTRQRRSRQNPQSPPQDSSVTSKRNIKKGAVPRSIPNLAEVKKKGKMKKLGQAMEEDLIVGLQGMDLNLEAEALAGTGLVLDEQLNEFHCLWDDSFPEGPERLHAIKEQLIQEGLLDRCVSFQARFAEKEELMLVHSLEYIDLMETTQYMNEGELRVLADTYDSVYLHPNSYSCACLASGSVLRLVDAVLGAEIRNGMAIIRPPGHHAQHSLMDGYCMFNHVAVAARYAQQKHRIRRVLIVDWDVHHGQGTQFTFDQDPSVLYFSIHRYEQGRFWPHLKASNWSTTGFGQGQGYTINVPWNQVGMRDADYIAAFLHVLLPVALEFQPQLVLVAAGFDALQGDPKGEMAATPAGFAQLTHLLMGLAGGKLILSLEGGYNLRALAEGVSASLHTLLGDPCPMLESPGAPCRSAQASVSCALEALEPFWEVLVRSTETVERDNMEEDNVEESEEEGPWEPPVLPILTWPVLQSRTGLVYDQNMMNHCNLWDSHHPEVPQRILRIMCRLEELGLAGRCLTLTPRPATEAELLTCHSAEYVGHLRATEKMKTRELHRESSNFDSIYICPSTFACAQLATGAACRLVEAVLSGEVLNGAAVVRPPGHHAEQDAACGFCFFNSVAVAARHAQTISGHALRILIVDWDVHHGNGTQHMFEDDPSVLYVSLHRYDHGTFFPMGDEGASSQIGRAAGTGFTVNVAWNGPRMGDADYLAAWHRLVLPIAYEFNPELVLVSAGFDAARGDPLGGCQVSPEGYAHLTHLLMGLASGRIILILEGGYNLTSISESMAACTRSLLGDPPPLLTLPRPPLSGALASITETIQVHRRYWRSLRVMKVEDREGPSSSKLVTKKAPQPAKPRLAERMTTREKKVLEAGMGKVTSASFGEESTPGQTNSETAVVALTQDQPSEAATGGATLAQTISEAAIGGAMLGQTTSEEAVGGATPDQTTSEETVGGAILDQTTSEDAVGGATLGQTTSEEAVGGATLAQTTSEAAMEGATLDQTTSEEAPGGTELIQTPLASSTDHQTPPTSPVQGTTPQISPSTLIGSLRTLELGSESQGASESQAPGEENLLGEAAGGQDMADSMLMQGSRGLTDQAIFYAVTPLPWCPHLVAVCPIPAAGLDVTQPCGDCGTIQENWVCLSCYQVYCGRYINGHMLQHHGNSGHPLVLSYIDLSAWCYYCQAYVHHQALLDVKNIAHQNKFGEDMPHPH
Put plainly: HDAC6 Enzyme Assay. The format is biochemical. The following applies: bin: greater than 500 nM and less than 1 μM (lower bound in nM, upper bound in μM). In short, it runs like this:
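Deacetylated product quantified after trypsin digestion as released AMC (340/460 nm), following a 1 h, 30 °C reaction of human HDAC6 with Ac-RGK(Ac)-AMC peptide, quenched by trichostatin A. IC50 derived from DMSO-normalized curves.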
Compound `CC(C)(C)C(NC(=O)C1(c2ccc(Cl)cc2)CC1)c1ccc(C(=O)NO)cc1` (stereo not drawn) [Compound I-41, 4-[1-({[1-(4-chlorophenyl)cyclopropyl]carbonyl}amino)-2,2-dimethylpropyl]-N-hydroxybenzamide] came in with an IC50 of 500 to 1000 nM.

Turning to `CC(NS(=O)(=O)c1ccc2nsnc2c1)c1ccc(C(=O)NO)cc1` (stereo not drawn) [Compound I-272, 4-{1-[(2,1,3-benzothiadiazol-5-ylsulfonyl)amino]ethyl}-N-hydroxybenzamide], the IC50 was 500 to 1000 nM.

Still in this test, the particulars now being: bin: greater than 1 μM.
The compound `CC(C)(C)C(NC(=O)Cc1csc2ccc(Cl)cc12)c1ccc(C(=O)NO)cc1` (stereo not drawn) [Compound I-345, 4-(1-{[(5-chloro-1-benzothien-3-yl)acetyl]amino}-2,2-dimethylpropyl)-N-hydroxybenzamide] gave an IC50 of more than 1000 nM.

In turn, `CC(C)(C)C(NC(=O)C1CCCC1)c1ccc(C(=O)NO)cc1` (stereo not drawn) [Compound I-373, 4-{1-[(cyclopentylcarbonyl)amino]-2,2-dimethylpropyl}-N-hydroxybenzamide] returned an IC50 of more than 1000 nM.

For the compound `CC(NC(=O)Cc1cc(C(F)(F)F)cc(C(F)(F)F)c1)c1cccc(C(=O)NO)c1` (stereo not drawn) [Compound I-362, 3-[1-({[3,5-bis(trifluoromethyl)phenyl]acetyl}amino)ethyl]-N-hydroxybenzamide], the IC50 was more than 1000 nM.

As for `COc1ccc(CC(=O)NC(C)c2ccc(C(=O)NO)cc2)cc1` (stereo not drawn) [Compound I-159, N-hydroxy-4-(1-{[(4-methoxyphenyl)acetyl]amino}ethyl)benzamide], the IC50 is more than 1000 nM.

The compound `CC(C)CC(=O)NC(C)c1ccc(C(=O)NO)cc1` (stereo not drawn) [Compound I-111, N-hydroxy-4-{1-[(3-methylbutanoyl)amino]ethyl}benzamide] displayed an IC50 of more than 1000 nM.

`CC(NC(=O)C1CCCCC1)c1cccc(C(=O)NO)c1` (stereo not drawn) [Compound I-149, 3-{1-[(cyclohexylcarbonyl)amino]ethyl}-N-hydroxybenzamide] yielded an IC50 of more than 1000 nM.

In turn, `CC(NC(=O)CC1CCOCC1)c1ccc(C(=O)NO)cc1` (stereo not drawn) [Compound I-313, N-hydroxy-4-{1-[(tetrahydro-2H-pyran-4-ylacetyl)amino]ethyl}benzamide] returned an IC50 of more than 1000 nM.

With `Cc1noc(C)c1C(=O)NC(C)c1ccc(C(=O)NO)cc1` (stereo not drawn) [Compound I-326, N-(1-{4-[(hydroxyamino)carbonyl]phenyl}ethyl)-3,5-dimethylisoxazole-4-carboxamide], the IC50 was more than 1000 nM.

The same test, now with this note: purified human HDAC6, substrate Ac-Arg-Gly-Lys(Ac)-AMC, 1 hour at 30° C.; reported as bins.
As for `C[C@@H](NC(=O)c1cc2ccccc2n1C)c1ccc(C(=O)NO)cc1` [Compound I-115, N-((1R)-1-{4-[(hydroxyamino)carbonyl]phenyl}ethyl)-1-methyl-1H-indole-2-carboxamide], the concentration for half-maximal inhibition (IC50) is less than 100 nM.

Consider `C[C@H](NC(=O)c1cc2ccccc2n1C)c1cccc(C(=O)NO)c1` [Compound I-294, N-((1S)-1-{3-[(hydroxyamino)carbonyl]phenyl}ethyl)-1-methyl-1H-indole-2-carboxamide], for which the IC50 was in the range of 100 to 500 nM.

Regarding `CC(NS(=O)(=O)Cc1ccccc1)c1ccc(C(=O)NO)cc1` (stereo not drawn) [Compound I-338, 4-{1-[(benzylsulfonyl)amino]ethyl}-N-hydroxybenzamide], the IC50 lay within 100 to 500 nM.

Regarding `CCS(=O)(=O)NC(C)c1ccc(C(=O)NO)cc1` (stereo not drawn) [Compound I-1, 4-{1-[(ethylsulfonyl)amino]ethyl}-N-hydroxybenzamide], the IC50 lay in the range of 100 to 500 nM.

`CCC[C@@H](NC(=O)c1sc2ccccc2c1C)c1ccc(C(=O)NO)cc1` [Compound I-62, N-((1R)-1-{4-[(hydroxyamino)carbonyl]phenyl}butyl)-3-methyl-1-benzothiophene-2-carboxamide]: the IC50 is less than 100 nM.

In turn, `CC(C)C(NC(=O)c1cccn1C)c1ccc(C(=O)NO)cc1` (stereo not drawn) [Compound I-30, N-(1-{4-[(hydroxyamino)carbonyl]phenyl}-2-methylpropyl)-1-methyl-1H-pyrrole-2-carboxamide] came in with an IC50 of less than 100 nM.

For `CC(NC(=O)c1ccc(Cl)cc1)c1ccc(C(=O)NO)cc1` (stereo not drawn) [Compound I-136, 4-chloro-N-(1-{4-[(hydroxyamino)carbonyl]phenyl}ethyl)benzamide], the IC50 was less than 100 nM.

On to `CC(C)(C)C(NC(=O)c1cscn1)c1ccc(C(=O)NO)cc1` (stereo not drawn) [Compound I-123, N-(1-{4-[(hydroxyamino)carbonyl]phenyl}-2,2-dimethylpropyl)-1,3-thiazole-4-carboxamide], for which the IC50 fell in the range of 100 to 500 nM.

In the case of `CCC[C@@H](NC(=O)c1cccn1C)c1ccc(C(=O)NO)cc1` [Compound I-281, N-((1R)-1-{4-[(hydroxyamino)carbonyl]phenyl}butyl)-1-methyl-1H-pyrrole-2-carboxamide], the IC50 is less than 100 nM.

In turn, `C[C@@H](NC(=O)C12CC3CC(CC(C3)C1)C2)c1ccc(C(=O)NO)cc1` [Compound I-209, N-((1R)-1-{4-[(hydroxyamino)carbonyl]phenyl}ethyl)adamantane-1-carboxamide] came in with an IC50 of less than 100 nM.

`CC(C)[C@@H](NC(=O)c1ccc(-c2ccccc2)cc1)c1ccc(C(=O)NO)cc1` [Compound I-341, N-((1R)-1-{4-[(hydroxyamino)carbonyl]phenyl}-2-methylpropyl)biphenyl-4-carboxamide] registered an IC50 of less than 100 nM.

Consider `CC(NC(=O)c1cc(-c2ccccc2)n[nH]1)c1ccc(C(=O)NO)cc1` (stereo not drawn) [Compound I-109, N-(1-{4-[(hydroxyamino)carbonyl]phenyl}ethyl)-3-phenyl-1H-pyrazole-5-carboxamide], for which the IC50 is less than 100 nM.

In turn, `Cc1ccc(S(=O)(=O)NC(C)c2ccc(C(=O)NO)cc2)cc1` (stereo not drawn) [Compound I-266, N-hydroxy-4-(1-{[(4-methylphenyl)sulfonyl]amino}ethyl)benzamide] had an IC50 of 100 to 500 nM.

`COc1ccc(S(=O)(=O)NC(C)c2ccc(C(=O)NO)cc2)cc1` (stereo not drawn) [Compound I-47, N-hydroxy-4-(1-{[(4-methoxyphenyl)sulfonyl]amino}ethyl)benzamide] registered an IC50 of 100 to 500 nM.

On to `CC(NC(=O)C1(C)CCCCC1)c1ccc(C(=O)NO)cc1` (stereo not drawn) [Compound I-132, N-hydroxy-4-(1-{[(1-methylcyclohexyl)carbonyl]amino}ethyl)benzamide], for which the IC50 is less than 100 nM.

As to `CC(=O)Nc1cc(NC(C)=O)cc(C(=O)NC(c2ccc(C(=O)NO)cc2)C(C)C)c1` (stereo not drawn) [Compound I-282, 3,5-bis(acetylamino)-N-(1-{4-[(hydroxyamino)carbonyl]phenyl}-2-methylpropyl)benzamide], the IC50 was less than 100 nM.

`CC(C)[C@@H](NC(=O)c1cc(Cl)c(Cl)n1C)c1ccc(C(=O)NO)cc1` [Compound I-96, 4,5-dichloro-N-((1R)-1-{4-[(hydroxyamino)carbonyl]phenyl}-2-methylpropyl)-1-methyl-1H-pyrrole-2-carboxamide] showed an IC50 of less than 100 nM.

Regarding `Cn1cc(C(=O)NC(c2ccc(C(=O)NO)cc2)C(C)(C)C)c2ccccc21` (stereo not drawn) [Compound I-107, N-(1-{4-[(hydroxyamino)carbonyl]phenyl}-2,2-dimethylpropyl)-1-methyl-1H-indole-3-carboxamide], the IC50 was less than 100 nM.

As to `CCC[C@@H](NC(=O)c1ccc(OC)cc1)c1ccc(C(=O)NO)cc1` [Compound I-146, N-((1R)-1-{4-[(hydroxyamino)carbonyl]phenyl}butyl)-4-methoxybenzamide], the IC50 is less than 100 nM.

Turning to `Cc1c(C(=O)N[C@H](C)c2ccc(C(=O)NO)cc2)oc2ccccc12` [Compound I-237, N-((1R)-1-{4-[(hydroxyamino)carbonyl]phenyl}ethyl)-3-methyl-1-benzofuran-2-carboxamide], the IC50 is less than 100 nM.

Compound `Cc1ccc(NC(=O)NC(C)c2ccc(C(=O)NO)cc2)c(C)c1` (stereo not drawn) [Compound I-383, 4-[1-({[(2,4-dimethylphenyl)amino]carbonyl}amino)ethyl]-N-hydroxybenzamide] returned an IC50 of less than 100 nM.

The compound `CC(C)C(NC(=O)c1cccs1)c1ccc(C(=O)NO)cc1` (stereo not drawn) [Compound I-112, N-(1-{4-[(hydroxyamino)carbonyl]phenyl}-2-methylpropyl)thiophene-2-carboxamide] had an IC50 of less than 100 nM.

The compound `CC(NC(=O)Nc1cc(Cl)cc(Cl)c1)c1ccc(C(=O)NO)cc1` (stereo not drawn) [Compound I-388, 4-[1-({[(3,5-dichlorophenyl)amino]carbonyl}amino)ethyl]-N-hydroxybenzamide] came in with an IC50 of 100 to 500 nM.
